Test results taken from US5552421A, “Leukotriene biosynthesis inhibitors” (Boehringer Ingelheim Pharmaceuticals, Inc., priority 1995, dated 1996).
One block for each compound: values may come before it.

Legend:
[1] = test system: LTB4 biosynthesis in human polymorphonuclear leukocytes (PMNs); assay: Inhibition of LTB4 biosynthesis in human polymorphonuclear leukocytes (PMNs); format: cell-based; details: Leukocyte
Description: Inhibition of LTB4, biosynthesis in human polymorphonuclear leukocytes (PMNs)
The inhibition of leukotriene biosynthesis is measured by determining whether and to what extent test compounds can inhibit LTB4 production from endogenous arachidonic acid in human peripheral blood leukocytes.
To 48-well tissue culture plates was added a solution of the test compound followed by addition of human polymorphonuclear leukocytes isolated from peripheral blood at a density of 1.5×10^6 cells/well. Culture plates were preincubated for fifteen minutes with shaking at 28° C. Cells were stimulated with calcium ionophore A23187 at a final concentration of 2.5 μM for an additional ten minutes. The reaction was terminated by the addition of an EGTA solution (10 mM final concentration)followed by centrifugation at 1500 rpm at 10° C. Supernatants were stored at -70° C. LTB4 levels were determined by RIA using a commercially available kit. Nonlinear regression analysis was used to calculate. IC50 values.
The following tables show % inhibition of LTB4 biosynthesis by compounds of the invention at test concentrations indicated, with the determined IC50 shown in μM.

[2] = test system: leukotriene component of antigen-induced bronchoconstriction; assay: Antigen-Induced Bronchoconstriction in Guinea Pigs; format: in vivo, guinea pig (male Hartley); details: aerosol, vs placebo treated controls
Excerpt: Antigen-Induced Bronchoconstriction in Guinea Pigs
This model measures the ability of a compound to block the leukotriene component of antigen-induced bronchoconstriction. Male Hartley guinea pigs are actively sensitized to ovalbumin, pretreated with mepyramine and indomethacin (to block the histamine and cyclooxygenase metabolite components respectively), and test compound (by aerosol administration). The guinea pigs are challenged with antigen (inhaled ovalbumin). Pulmonary function is measured by oscillatory mechanics as described by W. W. Wolyniec et al. (Agents and Actions 1991, 34, 1/2, 73). Results are expressed as percent inhibition of bronchoconstriction (resistance) in the test compound treated guinea pigs compared to placebo treated controls.
*Refers to amount of test compound inhaled by gunea pig. Compounds
administered by aerosolized freon/ethanol solution from metered dose

[3] = Homo sapiens, Table 3, Phenyl, values with <: see footnote d, Table 1
[4] = Table 1, Esters, LTB4, A23187-stimulated human PMNs, values with < (footnote d): greater than 50% (504 [sic]) inhibition at this concentration, IC50 not characterized further

IC50 ([1]; Homo sapiens, Table 10, Oxazolopyridines, values with <: see footnote d, Table 1): 26 nM
Structure (SMILES): Cc1ccc2oc(NC(CC3CCCCC3)c3ccccn3)nc2n1 (stereo not drawn) [Compound 165]
% Inhibition of bronchoconstriction (resistance) ([2]; 5.6 micrograms inhaled): 0%
% Inhibition of bronchoconstriction (resistance) ([2]; 28 micrograms inhaled): 64%
% Inhibition of bronchoconstriction (resistance) ([2]; 274 micrograms inhaled): 84%

IC50 [1, 3]: 550 nM
Structure (SMILES): COc1ccc(C(CC2CCCCC2)Nc2nc3ccccc3o2)cc1 (stereo not drawn) [Compound 56]
% Inhibition of bronchoconstriction (resistance) ([2]; 95 micrograms inhaled): 43%

IC50 [1, 3]: 6.9 nM
Structure (SMILES): c1ccc(C(CC2CCCCC2)Nc2nc3ccccc3o2)cc1 (stereo not drawn) [Compound 51, 2-(2-Cyclohexyl-1-phenyl]ethylaminobenzoxazole]
% Inhibition of bronchoconstriction (resistance) ([2]; 274 micrograms inhaled): 86%

IC50 [1, 4]: 330 nM
Structure (SMILES): CCOC(=O)C(Cc1ccc(F)cc1)Nc1nc2ccccc2s1 (stereo not drawn) [Compound 2]

IC50 [1, 4]: 6.4 nM
Structure (SMILES): COC(=O)[C@H](CC1CCCCC1)Nc1nc2ccccc2o1 [Compound 21]

IC50 ([1]; Homo sapiens, Table 4, Pyridyl, values with <: see footnote d, Table 1): 3.1 nM
Structure (SMILES): Cc1ccc2oc(NC(CC3CCCCC3)c3ccccn3)nc2c1 (stereo not drawn) [Compound 81]
% Inhibition of bronchoconstriction (resistance) ([2]; 2.8 micrograms inhaled): 61%
% Inhibition of bronchoconstriction (resistance) ([2]; 28 micrograms inhaled): 64%
% Inhibition of bronchoconstriction (resistance) ([2]; 308 micrograms inhaled): 64%

IC50 ([1]; Homo sapiens, Table 14, Miscellaneous Compounds, values with <: see footnote d, Table 1): < 1000 nM
Structure (SMILES): COC(=O)[C@H](Cc1cn(C)cn1)Nc1nc2cc(C(C)C)ccc2o1 [Compound 201]
